Reference: article PMC5253357, “Racemic Salsolinol and its Enantiomers Act as Agonists of the μ-Opioid Receptor by Activating the Gi Protein-Adenylate Cyclase Pathway” (Frontiers in Behavioral Neuroscience, 2017)
pEC50, pIC50: −log10 of the molar value. Entries after “also recorded” stand apart in the source; their conditions may differ.

Columns and labels:
human μ-opioid receptor [1] = target: T1, human μ-opioid receptor (Homo sapiens, UniProt P35372); assay: cell-based; settings: CHO-K1 cells, forskolin 20 μM, 30 min incubation; read-out: EC50, activation of μ-opioid receptor (reduction of intracellular cAMP)
T1 construct: host or cells: CHO-K1
Description: The intrinsic activity of the ligands was studied using commercially cell-based assays, composed by recombinant CHO-K1 cells that overexpress only the human μ-opioid receptor, detecting the levels of second messengers that reflect the activation of this receptor. To assess the activation of the μ-opioid receptor through the recruitment of G protein signaling pathway, we used the cyclic adenosine monophosphate (cAMP) Hunter® eXpress G protein-coupled receptor (GPCR) Assay (DiscoverX, Freemont, CA, USA) following the manufacturer instructions. In this system, the endogenous cAMP competes with an exogenous cAMP coupled to a truncated β-galactosidase fragment (provided by the assay) for binding to a cAMP antibody. Only the unbound exogenous cAMP-β-galactosidase fragment binds to a complementary β-galactosidase fragment to form the active enzyme. […] Control cells were incubated only with forskolin. The resulting luminescence was measured with a microplate reader Synergy HT (Biotek, Winooski, VT, USA) or a microplate reader SpectraMax M3 (Molecular Devices, Sunnyvale, CA, USA).
(§1) The fitting of the data to the correlation was assessed by its corresponding coefficient of determination (R^2), using GraphPad Prism (San Diego, CA, USA).

human μ-opioid receptor [2] = target: T1, human μ-opioid receptor; type: cell-based; settings: all tested concentrations; listed as racemic SAL
Description: To assess the activation of the μ-opioid receptor through the recruitment of the β-arrestin signaling pathway, we used a PathHunter® eXpress β-Arrestin GPCR chemiluminescent assay (DiscoverX) following the manufacturer instructions. In this system, the human μ-opioid receptor is fused to a small fragment of β-galactosidase (PK) and co-expressed in cells expressing a fusion protein of β-arrestin and the complementary fragment of β-galactosidase (EA). Activation of the μ-opioid receptor stimulates binding of β-arrestin to the PK-tagged receptor allowing the complementation of the two enzyme fragments of β-galactosidase. This action leads to an activation of the enzyme that can be measured using a chemiluminescent reagent resulting in luminescence, which is proportional to the recruitment of β-arrestin. […] The resulting luminescence was determined with a microplate reader Synergy HT (Biotek).
as §1

μ-opioid receptor = target: μ-opioid receptor; parameters: method as in Lucchi et al., 1982; settings: rat striatum; ref Lucchi et al., 1982; read-out: IC50, displacement of [met]-enkephalin; cited from earlier work

T1 sequence (P35372 whole entry): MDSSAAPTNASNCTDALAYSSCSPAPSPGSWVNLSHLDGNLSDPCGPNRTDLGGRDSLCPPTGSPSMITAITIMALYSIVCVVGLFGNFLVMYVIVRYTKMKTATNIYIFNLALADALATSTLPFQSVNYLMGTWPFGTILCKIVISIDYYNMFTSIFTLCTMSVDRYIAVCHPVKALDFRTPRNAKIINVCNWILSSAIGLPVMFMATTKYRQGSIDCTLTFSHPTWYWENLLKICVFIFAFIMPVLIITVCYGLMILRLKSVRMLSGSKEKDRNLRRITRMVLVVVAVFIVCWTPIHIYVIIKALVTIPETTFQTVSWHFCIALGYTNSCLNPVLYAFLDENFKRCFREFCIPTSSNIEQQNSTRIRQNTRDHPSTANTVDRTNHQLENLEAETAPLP

SMILES | pEC50 (human μ-opioid receptor [1]) | Activation of β-arrestin signaling pathway (in words) (human μ-opioid receptor [2]) | pIC50 (μ-opioid receptor)
C[C@H]1NCCc2cc(O)c(O)cc21 [(R)-SAL] | 3.22 | – | –
C[C@@H]1NCCc2cc(O)c(O)cc21 [(S)-SAL] | 5.05 | – | –
CC1NCCc2cc(O)c(O)cc21 (racemic) [(R/S)-SAL, 1-methyl-1,2,3,4-tetrahydro-6,7-dihydroxy-isoquinoline] | 4.70 | did not promote the recruitment of β-arrestin; also recorded: unable to activate the β-arrestin signaling pathway; also recorded: does not induce the recruitment of β-arrestin | 5.00
